Earlier results on two molecules are cited in article PMC2840068 (Vision research, 2009).

Series [1] deals with VEGF. To be noted: clinical trials in AMD patients; ref Gragoudas et al., 2004.
The subject of series [2] is VEGF. The conditions noted are these: ref Chang et al., 2007, Rosenfeld et al., 2006.

For the molecule pegaptanib, the therapeutic dose response result in the series on VEGF [1] was “inverse therapeutic dose response”.

B1: ranibizumab: anti-VEGF antibody (ranibizumab) (antibody, chains of the INN, looked up, V domains shown)
VH: EVQLVESGGGLVQPGGSLRLSCAASGYDFTHYGMNWVRQAPGKGLEWVGWINTYTGEPTYAADFKRRFTFSLDTSKSTAYLQMNSLRAEDTAVYYCAKYPYYYGTSHWYFDVWGQGTLVTVSS
VL: DIQLTQSPSSLSASVGDRVTITCSASQDISNYLNWYQQKPGKAPKVLIYFTSSLHSGVPSRFSGSGSGTDFTLTISSLQPEDFATYYCQQYSTVPWTFGQGTKVEIK
Turning to B1, in the series with VEGF [2], the “AMD patients’ vision” value was “improvement of AMD patients’ vision”.
